From paper PMC7412250, “Novel Chrysin-De-Allyl PAC-1 Hybrid Analogues as Anticancer Compounds: Design, Synthesis, and Biological Evaluation” (Molecules, 2020)

Legend:
MDA-MB-231 cells = assay: MTT cytotoxicity assay, MDA-MB-231; format: cell-based, human; settings: Homo sapiens; MDA-MB-231, MTT, mean ± SD of two independent experiments in triplicate; read-out: IC50 (cell survival)
Method: The synthesized chrysin derivatives were evaluated for cytotoxic efficacy in the human breast cancer cell line, MDA-MB-231, using the 3-(4,5-dimethylthiazol-2yl)-2,5-diphenyltetrazolium bromide (MTT) colorimetric assay and doxorubicin was used as a reference anticancer drug.
(§1) A panel of cancer cell lines, including breast (MDA-MB-231, BT20), brain (U251), and colon (HCT116), as well as a normal cell line (human mammary epithelial cells: HMECs), were grown as adherent monolayers in flasks with Dulbecco’s Modified Eagle Medium (DMEM), supplemented with 10% fetal bovine serum (FBS) and 1% penicillin and streptomycin in a humidified incubator with 5% CO2 at 37 °C.
The (3-(4,5-dimethylthiazol-2-yl)-2,5-diphenyltetrazolium bromide) (MTT) assay was used to determine the cytotoxicity of the 15 chrysin derivatives in the above-mentioned cell lines. Briefly, cells were harvested with 0.05% trypsin, 2.21 mM ethylenediaminetetraacetic acid (EDTA), 1× from Corning (Corning, NY, USA), and suspended at a final density of 5 × 10^3 cells/well. Cells were seeded (180 μL/well) into 96-well plates. Initially, four different concentrations of each compound were added to find the compounds with the greatest antiproliferative efficacy in the MDA-MB-231 cell line (0, 1, 10, and 100 μM). Subsequently, […] different concentrations […] of each compound were added to the remaining cell lines mentioned above. After 68 h of incubation, 20 μL of the MTT solution (4 mg/mL) were added to each well, and the plates were incubated for 4 h. This allowed viable cells to biotransform the yellow-colored MTT into dark-blue formazan crystals. Subsequently, the medium was discarded, and 150 μL of DMSO were added to each well to dissolve the formazan crystals. The absorbance was determined at 590 nm using a DTX 880 multimode detector (Beckman Coulter life sciences, IN, USA). […] The IC50 values were calculated from the cell survival percentages obtained for each compound tested at different concentrations. Similarly, the cytotoxicity of the test compounds was compared to the normal cell line (HMEC).

BT-20 = assay: MTT cytotoxicity assay, BT-20; format: cell-based; settings: Homo sapiens, mean ± SEM of three independent experiments in triplicate, read-out: IC50 Breast Cancer BT-20
Method: as §1
The (3-(4,5-dimethylthiazol-2-yl)-2,5-diphenyltetrazolium bromide) (MTT) assay was used to determine the cytotoxicity of the 15 chrysin derivatives in the above-mentioned cell lines. Briefly, cells were harvested with 0.05% trypsin, 2.21 mM ethylenediaminetetraacetic acid (EDTA), 1× from Corning (Corning, NY, USA), and suspended at a final density of 5 × 10^3 cells/well. Cells were seeded (180 μL/well) into 96-well plates. Initially, four different concentrations of each compound were added to find the compounds with the greatest antiproliferative efficacy in the MDA-MB-231 cell line (0, 1, 10, and 100 μM). Subsequently, […] different concentrations […] of each compound were added to the remaining cell lines mentioned above. After 68 h of incubation, 20 μL of the MTT solution (4 mg/mL) were added to each well, and the plates were incubated for 4 h. This allowed viable cells to biotransform the yellow-colored MTT into dark-blue formazan crystals. Subsequently, the medium was discarded, and 150 μL of DMSO were added to each well to dissolve the formazan crystals. The absorbance was determined at 590 nm using a DTX 880 multimode detector (Beckman Coulter life sciences, IN, USA). The IC50 ± SD concentrations were calculated from three experiments performed in triplicate/duplicate. The IC50 values were calculated from the cell survival percentages obtained for each compound tested at different concentrations. Similarly, the cytotoxicity of the test compounds was compared to the normal cell line (HMEC).

| SMILES | IC50 (MDA-MB-231 cells) | IC50 (BT-20) |
| --- | --- | --- |
| O=C(COc1cc(O)c2c(=O)cc(-c3ccccc3)oc2c1)N/N=C/c1ccc(O)cc1O [Compound 4g, (E,Z)-N’-(2,4-Dihydroxybenzylidene)-2-((5-hydroxy-4-oxo-2-phenyl-4H-chromen-7-yl)oxy)acetohydrazide] | 5.98 ± 2.25 µM | 5.32 ± 0.72 µM |
| O=C(COc1cc(O)c2c(=O)cc(-c3ccccc3)oc2c1)N/N=C/c1ccc(O)c(O)c1O [Compound 4i, (E,Z)-2-((5-Hydroxy-4-oxo-2-phenyl-4H-chromen-7-yl)oxy)-N’-(2,3,4-trihydroxybenzylidene)acetohydrazide] | 9.4 ± 1.45 µM | 10.4 ± 0.2 µM |
